A short description of this data set: Solubility in ethyl acetate by fractionation and phase separation, HPLC analysis of the solvent layer. Format: physicochemical.

Each structure is given as a SMILES string. In brackets after ≈: the same amount, converted by molar mass.

The results in this text go back to patent publication US7488855B2 (CJ Corporation, priority 2004, dated 2009).

As usually defined, the solubility is the dissolved amount per volume that the medium holds.

Consider `CC(O)CO` (centres unmarked) [1,2-propanediol], for which, where the note is “ethyl acetate, mixture 10:1:2:2 dissolved at 30-100 g/L 1,3-propanediol, left alone for 2 hours, upper solvent layer analysed by HPLC”, the “solubility in EA” value fell in the range of 5000 to 7000 µg/mL.

As to `OCC(O)CO` [glycerol], the solubility at 2 h (organic solvent or mixture) lay in the range of 3000 to 6000 µg/mL (≈ 32.6 to 65.2 mM).
